Structures can show the parent of a compound that is named as a salt.
What was measured:
Type in all cases: cell-based
Escherichia coli DH5α = experiment: Effect of biological buffers with or without protamine on the growth of Escherichia coli DH5α; conditions: buffer without protamine; starting inoculum 10^7 cells; mean of three replicates
Experimental: (§1) All bacterial strains are maintained as frozen stocks at −80° C. in TSB, Luria-Bertani broth.
(§2) Throughout the experiments strains are subcultured every 2 weeks on TSA (tryptic soy agar; 15 g l^−1 agar) or LBA (Luria-Bertani agar; 15 g l^−1 agar) depending upon the type of bacteria and experiment and kept at 4° C. The incubation temperature is 37° C. except for photo-heterotrophic bacteria (30° C.).
(§3) The growth curve is determined by measuring the optical density (OD), growth rate and doubling time. Additionally, the number of colony forming units is determined by counting bacterial spots.
(§4) Bacterial growth is monitored by recording the increase in optical density (OD) at 560 nm in a spectrophotometer (Ultrospec 1000, Pharmacia Biotech, England). Sterile medium is used as reference. […] At given times, 100 μl aliquots of the samples are removed and spread on corresponding agar plates. If necessary, the samples are diluted by factors between 10^2−10^8 to ensure good count ability. Colony forming unit determination (CFU/ml) is carried out in duplicate using a CCD camera module (Sony Corp., Japan) applying the BioProfil Software V 2000.01 (Vilber Lourmat, France).
(§5) A commercially available protamine from Salmon is obtained from Sigma Aldrich (Taufkirchen, Germany). A stock solution is prepared by dissolving protamine in distilled water. The solution is then sterilized with Rotabilo© filter units (0.22 μm; Carl Roth, Karlsruhe, Germany) and stored at −20° C. until use.
Determination of Bactericidal Effect of Biological Buffers With or Without Protamine on Gram-negative Bacteria
(§6) In all experiments the starting inoculum is 10^7 cells. The data shown are average means of three replicates.

[1] = tested on: Micrococcus luteus DSM 348; experiment: Effect of biological buffers with or without protamine on the growth of Micrococcus luteus DSM 348; conditions: for μ (growth rate): buffer without protamine, pH of 8.0 (FIG. 4), starting inoculum 10^7 cells, mean of three replicates
Experimental: as §1, §2, §3, §4, §5
Determination of Bactericidal Effect of Biological Buffers With or Without Protamine on Gram-positive Bacteria
as §6

Pseudomonas fluorescens = experiment: Protamine tolerance of Pseudomonas fluorescens with a special phenotype
Escherichia coli = experiment: Growth of Escherichia coli in the presence of protamine

Compound	td (doubling time) (Escherichia coli DH5α) [h]	μ (growth rate) (Escherichia coli DH5α) [h⁻¹]	μ (growth rate) [1] [h⁻¹]	concentration of protamine needed for bacterial death on further addition of lysozyme ([1]; pH of 8.0, citrate + bicarbonate composition with protamine, relative to the amount needed without lysozyme) [%]	effect of the composition additionally comprising protamine ([1]; pH of 8.0, citrate + bicarbonate composition)	protamine concentrations tolerated (Pseudomonas fluorescens)	protamine concentration at which the organism does not grow (Escherichia coli)
O=C([O-])O.[Na+] [0.1M NaHCO3, NaHCO3]	3.01	0.230	0				
O=C(O)CC(O)(CC(=O)O)C(=O)O [0.4M citrate]	3.75	0.185	0				
lysozyme				30			
protamine					bacterial death	more than 40 mg/ml	1,5 mg/ml

Reference: patent US7544483B2, “Method for the production of protamine” (priority 2002, dated 2009)
